Assay results published in patent EP4120837B1, “INHIBITORS OF CYTOKININ OXIDASE DERIVED FROM 2-(3-PHENYLUREIDO)BENZAMIDE, USE THEREOF AND PREPARATIONS CONTAINING THESE DERIVATIVES” (Univerzita Palackého v Olomouci, priority 2020, dated 2021).
Where two headings read alike, the source gives them in different places.

Biological target: T1, ZmCKX1 (Zea mays, UniProt Q9T0N8)
T1 construct: made in house; host or cells: Yarrowia lipolytica
Experiment: ZmCKX1 inhibition, PMS/MTT assay
Assay type: biochemical, maize
Procedure: The IC50 (concentration of a substance that causes 50% inhibition of the enzyme activity) was measured by PMS/MTT assay [phenazine methosulphate/3-(4,5-dimethylthiazol-2-yl)-2,5-diphenyltetrazolium bromide]. The assay was performed in 96-well microtiter plates. Each well contained a reaction mixture with a final concentration of: 0.1 M KH2PO4, pH 7.4, 1 mM MTT, 0.2 mM PMS, tested substance in a concentration range of 0.1 nM - 1 µM and 10 µM N^6-isopentenyladenine (iP) as a substrate. To this reaction mixture 100 µL of medium containing the active enzyme ZmCKX1 was added. The enzyme was produced by the yeast Yarrowia lipolytica and isolated according to the protocol (Kopečný D. et al., 2005, […] 87:1011-1022). The plates were incubated for 30 min at 37 °C and the enzymatic reaction was stopped by the addition of 25 µL of 35% acetic acid. Then, the absorbance at 578 nm was measured on a spectrophotometer, and the absorbance of the sample without the substrate was substracted as a reference value. The IC50 value was determined from the concentration-dependent curves in GraphPad Prism software. The values shown in Table 1 are the average of at least two measurements each performed in three repetitions. […] The substance 3,5DCl-Ph-U is 1-(3,5-dichlorophenyl)-3-phenylurea, which we have been prepared to compare its inhibitory activity with the compounds presented in the present invention. Addition of the amide group to the unsubstituted phenyl ring of this substance gives the compound 2AD-3,5DC, which has 42-fold better inhibitory activity with the ZmCKX1 enzyme than 3,5DCl-Ph-U. F-INCYDE ((2-fluoro-9H-purin-6-yl)-(3-methoxyphenyl)amine), CPPU (1-(2-chloropyridin-4-yl)-3-phenylurea), and DCPPU (1-(2,6-dichloropyridin-4-yl)-3-phenylurea) are substances known in the prior art.

[1] = 10 µM iP as substrate, pH 7.4, 30 min at 37 °C, average of at least two measurements, read-out: IC50 (µM) ZmCKX1
[2] = read-out: IC50 (µM) ZmCKX1, 10 µM iP as substrate, pH 7.4, 30 min at 37 °C, average of at least two measurements

T1 sequence (Q9T0N8 19-534): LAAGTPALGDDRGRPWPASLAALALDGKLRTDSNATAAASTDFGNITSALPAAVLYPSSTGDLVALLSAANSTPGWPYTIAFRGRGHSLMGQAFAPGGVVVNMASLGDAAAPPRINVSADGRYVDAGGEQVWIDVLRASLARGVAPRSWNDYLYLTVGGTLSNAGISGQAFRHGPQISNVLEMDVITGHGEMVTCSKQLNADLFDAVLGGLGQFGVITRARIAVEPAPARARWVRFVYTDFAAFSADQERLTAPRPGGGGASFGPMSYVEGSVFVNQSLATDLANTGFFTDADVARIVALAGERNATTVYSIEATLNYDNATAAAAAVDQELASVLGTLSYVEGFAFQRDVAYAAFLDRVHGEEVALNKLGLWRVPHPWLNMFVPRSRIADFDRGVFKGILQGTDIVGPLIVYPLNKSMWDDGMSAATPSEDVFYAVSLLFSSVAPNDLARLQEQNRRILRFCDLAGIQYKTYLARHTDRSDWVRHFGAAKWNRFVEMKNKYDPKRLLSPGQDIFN

Row | IC50 [1] | Structure (SMILES) | further results
1 | 0.16 µM | NC(=O)c1ccccc1NC(=O)Nc1cc(F)cc(F)c1 [compound 5, 2-[3-(3,5-difluorophenyl)ureido]benzamide] | 
2 | 0.014 µM | CNC(=O)c1ccc(Cl)cc1NC(=O)Nc1cc(Cl)cc(Cl)c1 [compound 31, 4-chloro-2-[3-(3,5-dichlorophenyl)ureido]-N-methylbenzamide] | 
3 | 0.062 µM | CCCNC(=O)c1ccccc1NC(=O)Nc1cc(F)cc(F)c1 [compound 40, 2-[3-(3,5-difluorophenyl)ureido]-N-propylbenzamide] | 
4 | 0.002 µM | CCNC(=O)c1ccc(OC)cc1NC(=O)Nc1cc(Cl)cc(Cl)c1 [compound 37, 2-[3-(3,5-dichlorophenyl)ureido]-4-methoxy-N-ethylbenzamide] | 
5 |  | CNC(=O)c1ccc(Br)cc1NC(=O)Nc1cc(Cl)cc(Cl)c1 [compound 32, 4-bromo-2-[3-(3,5-dichlorophenyl)ureido]-N-methylbenzamide] | IC50 [2]: 0.01 µM
6 | 0.21 µM | NC(=O)c1ccccc1NC(=O)Nc1cccc(OC(F)(F)F)c1 [compound 4] | 
7 |  | NCCNC(=O)c1ccc(Br)cc1NC(=O)Nc1cc(Cl)cc(Cl)c1 [compound 55, N-(2-Aminoethyl)-4-bromo-2-[3-(3,5-dichlorophenyl)ureido]benzamide] | IC50: 0.01 µM
8 | 0.021 µM | CCNC(=O)c1ccc(OC)cc1NC(=O)Nc1cccc(Cl)c1 [compound 36, 2-[3-(3-chlorophenyl)ureido]-4-methoxy-N-ethylbenzamide] | 
9 | 0.11 µM | NC(=O)c1ccccc1NC(=O)Nc1cc(F)cc(Cl)c1 [compound 8, 2-[3-(3-Chloro-5-fluorophenyl)ureido]benzamide] | 
10 | 0.038 µM | CCNC(=O)c1ccccc1NC(=O)Nc1cc(Cl)cc(Cl)c1 [compound 34, 2-[3-(3,5-dichlorophenyl)ureido]-N-ethylbenzamide] | 
11 |  | NC(=O)c1ccc(Br)cc1NC(=O)Nc1cc(Cl)cc(Cl)c1 [compound 19, 4-Bromo-2-[3-(3,5-dichlorophenyl)ureido]benzamide] | IC50 [2]: 0.001 µM
12 |  | COc1ccc(C(N)=O)c(NC(=O)Nc2cc(Cl)cc(Br)c2)c1 [compound 25, 2-[3-(3-bromo-5-chlorophenyl)ureido]-4-methoxybenzamide] | IC50: 0.001 µM
13 | 0.074 µM | NNC(=O)c1ccccc1NC(=O)Nc1cc(Cl)cc(Cl)c1 [compound 44, 1-(3,5-dichlorophenyl)-3-(2-hydrazinocarbonylphenyl)-urea] | 
14 | 0.028 µM | COc1cc(Cl)cc(NC(=O)Nc2cc(F)ccc2C(N)=O)c1 [compound 14, 2-[3-(3-chloro-5-methoxyphenyl)ureido]-4-fluorobenzamide] | 
15 | 0.84 µM | O=C(Nc1ccccc1)Nc1cc(Cl)cc(Cl)c1 [3,5DCl-Ph-U, 1-(3,5-dichlorophenyl)-3-phenylurea, reference compound] | 
16 | 0.013 µM | COc1ccc(C(=O)NCCN)c(NC(=O)Nc2cc(Cl)cc(Cl)c2)c1 [compound 56, 2-[3-(3,5-dichlorophenyl)ureido]-4-methoxy-N-(2-amino-ethyl)benzamide] | 
17 |  | CCNC(=O)c1ccc(Br)cc1NC(=O)Nc1cc(Cl)cc(Cl)c1 [compound 35, 4-Bromo-2-[3-(3,5-dichlorophenyl)ureido]-N-ethylbenzamide] | IC50: 0.003 µM
18 | 0.03 µM | CNC(=O)c1ccccc1NC(=O)Nc1cc(Cl)cc(Cl)c1 [compound 29, 2-[3-(3,5-dichlorophenyl)ureido]-N-methylbenzamide] | 
19 |  | NC(=O)c1ccccc1NC(=O)Nc1cc(Cl)cc(Br)c1 [compound 9, 2-[3-(3-bromo-5-chlorophenyl)ureido]benzamide] | IC50: 0.04 µM
20 | 0.006 µM | CNC(=O)c1ccc(OC)cc1NC(=O)Nc1cccc(Cl)c1 [compound 33, 2-[3-(3-chlorophenyl)ureido]-4-methoxy-N-methylbenzamide] | 
21 | 0.04 µM | COc1ccc(C(=O)NCCO)c(NC(=O)Nc2cccc(F)c2)c1 [compound 49, 2-[3-(3-fluorophenyl)ureido]-4-methoxy-N-(2-hydroxy-ethyl)benzamide] | 
22 | 0.008 µM | NCCNC(=O)c1ccc(OC(F)(F)F)cc1NC(=O)Nc1cc(Cl)cc(Cl)c1 [compound 57, 2-[3-(3,5-dichlorophenyl)ureido]-4-trifluoromethoxy-N-(2-amino-ethyl)benzamide] | 
23 | 0.03 µM | CCCNC(=O)c1ccccc1NC(=O)Nc1cc(Cl)cc(Cl)c1 [compound 41, 2-[3-(3,5-dichlorophenyl)ureido]-N-propylbenzamide] | 

Row | IC50 [1] | Structure (SMILES) | further results
24 |  | NC(=O)c1ccc(OC(F)(F)F)cc1NC(=O)Nc1cccc(Br)c1 [compound 27, 2-[3-(3-bromophenyl)ureido]-4-trifluoromethoxybenzamide] | IC50: 0.007 µM
25 |  | NC(=O)c1ccccc1NC(=O)Nc1cc(Cl)cc(OC(F)(F)F)c1 [compound 11, 2-[3-(3-Chloro-5-trifluoromethoxyphenyl)ureido]benzamide] | IC50: 0.12 µM
26 | 0.022 µM | NC(=O)c1ccccc1NC(=O)Nc1cc(Cl)cc(Cl)c1 [compound 6, 2-[3-(3,5-Dichlorophenyl)ureido]benzamide] | better inhibitory activity with the ZmCKX1 enzyme than 3,5DCl-Ph-U (ratio versus 3,5DCl-Ph-U): 42 fold
27 | 0.035 µM | NC(=O)c1ccc(Cl)cc1NC(=O)Nc1cccc(Cl)c1 [compound 15, 4-chloro-2-[3-(3-chlorophenyl)ureido]benzamide] | 
28 | 0.17 µM | CCCNC(=O)c1ccccc1NC(=O)Nc1cccc(F)c1 [compound 39, 2-[3-(3-fluorophenyl)ureido]-N-propylbenzamide] | 
29 |  | NC(=O)c1ccccc1NC(=O)Nc1cccc(Br)c1 [compound 2, 2-[3-(3-bromophenyl)ureido]benzamide] | IC50: 0.34 µM
30 | 0.003 µM | COc1ccc(C(=O)NCCO)c(NC(=O)Nc2cc(Cl)cc(Cl)c2)c1 [compound 50, 2-[3-(3,5-dichlorophenyl)ureido]-4-methoxy-N-(2-hydroxyethyl)benzamide] | 
31 | 0.32 µM | COc1cccc(NC(=O)Nc2ccccc2C(N)=O)c1 [compound 3] | 
32 |  | NC(=O)c1ccc(OC(F)(F)F)cc1NC(=O)Nc1cc(Cl)cc(Cl)c1 [compound 28, 2-[3-(3,5-Dichlorophenyl)ureido]-4-trifluoromethoxybenzamide] | IC50: 0.001 µM
33 | 0.02 µM | COc1ccc(C(=O)NCCCO)c(NC(=O)Nc2cc(Cl)cc(Cl)c2)c1 [compound 53, 2-[3-(3,5-dichlorophenyl)ureido]-4-methoxy-N-(3-hydroxy-propyl)benzamide] | 
34 | 1 µM | COc1cccc(Nc2nc(F)nc3[nH]cnc23)c1 [F-INCYDE, (2-fluoro-9H-purin-6-yl)-(3-methoxyphenyl)amine, reference compound] | 
35 |  | NNC(=O)c1ccc(Br)cc1NC(=O)Nc1cc(Cl)cc(Cl)c1 [compound 45, 1-(5-Bromo-2-hydrazinocarbonylphenyl)-3-(3,5-dichlorophenyl)-urea] | IC50: 0.02 µM
36 | 0.45 µM | NC(=O)c1ccccc1NC(=O)Nc1cccc(F)c1 [compound 1, 2-[3-(3-fluorophenyl)ureido]benzamide] | 
37 | 0.021 µM | CNC(=O)c1ccc(F)cc1NC(=O)Nc1cc(Cl)cc(Cl)c1 [compound 30, 2-[3-(3,5-dichlorophenyl)ureido]-4-fluoro-N-methylbenzamide] | 
38 |  | O=C(Nc1ccccc1)Nc1ccnc(Cl)c1 [CPPU, 1-(2-chloro-4-pyridyl)-3-phenylurea, reference compound] | IC50: 18 µM
39 |  | COc1cc(Cl)cc(NC(=O)Nc2cc(Br)ccc2C(N)=O)c1 [compound 20, 4-bromo-2-[3-(3-chloro-5-methoxyphenyl)ureido]benzamide] | IC50: 0.034 µM
40 | 0.001 µM | CCNC(=O)c1ccc(OC(F)(F)F)cc1NC(=O)Nc1cc(F)cc(Cl)c1 [compound 38, 2-[3-(3-chloro-5-fluorophenyl)ureido]-4-trifluoromethoxy-N-ethylbenzamide] | 
41 |  | NCCNC(=O)c1ccc(Br)cc1NC(=O)Nc1cccc(Cl)c1 [compound 54, 4-bromo-2-[3-(3-chlorophenyl)ureido]-N-(2-amino-ethyl)benzamide] | IC50 [2]: 0.035 µM
42 | 0.002 µM | NC(=O)c1ccc(Cl)cc1NC(=O)Nc1cc(Cl)cc(Cl)c1 [compound 16, 4-Chloro-2-[3-(3,5-dichlorophenyl)ureido]benzamide] | 
43 |  | CCCNC(=O)c1ccc(Cl)cc1NC(=O)Nc1cc(F)cc(F)c1 [compound 42, 4-chloro-2-[3-(3,5-difluorophenyl)ureido]-N-propylbenzamide] | IC50 [2]: 0.022 µM
44 | 0.035 µM | COc1ccc(C(N)=O)c(NC(=O)Nc2cccc(Cl)c2)c1 [compound 22, 2-[3-(3-chlorophenyl)ureido]-4-methoxybenzamide] | 
45 |  | NC(=O)c1ccc(F)cc1NC(=O)Nc1cccc(Cl)c1 [compound 12, 2-[3-(3-chlorophenyl)ureido]-4-fluorobenzamide] | IC50: 0.09 µM

Row | Structure (SMILES) | IC50 [1] | further results
46 | O=C(Nc1ccccc1)Nc1cc(Cl)nc(Cl)c1 [DCPPU, 1-(2,6-dichloropyridin-4-yl)-3-phenylurea, reference compound] | 4.5 µM | 
